Experimental data from the supplement of paper PMC11208160.

Assay: recombinant UMI read abundance after kanamycin selection (control-corrected) (log10(CPM+1)); higher = more efficient recombination; extreme values may be limits of the assay; sequences stand for … in AGTGCAGAGAAAATCGGCCAGTTTTCTCTGCCTGCAGTCCGCATGCCGTGGGACCCCTTGGGTTCTAACCTGTTGCCTAGATTTATGCAGCGGACTGCCTTTCTCCCAAAGTGATAAACCGG…AGGTTGGTTTCACT; site = the 11-nt donor
Method in brief: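 Values are reported as log10(CPM+1), obtained by converting sequencing counts to CPM, averaging replicates and scaling by control-derived factors. The counts came from recombinant UMIs amplified by PCR across the donor–target junction. These UMIs came from a pooled Escherichia coli screen of donor and donor-binding-loop pairs for the IS621 bridge recombinase, plated with IPTG (0.07 mM) plus kanamycin or left unselected, in two replicates each.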
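Further: IS621 bridge recombinase in Escherichia coli cells against a fixed T5 target plasmid.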

Sequence | recombinant UMI read abundance (log10)
AGTAAGGCATGGACCGGTTTTCCCGGTAATCCGTATTTGAT (site AGTAAGGCTAT) | 2.27
AGTAATTCATGGACCGGTTTTCCCGGTAATCCGTATTTGAC (site AGTAATTCTGT) | 0.17
AGTACACCATGGACCGGTTTTCCCGGTAATCCGTATTTGAG (site AGTACACCTCT) | 0.0245
AGTAGCCCATGGACCGGTTTTCCCGGTAATCCGTATTTGGA (site AGTAGCCCTTC) | 0.01
AGTCCATCATGGACCGGTTTTCCCGGTAATCCGTATTTGGG (site AGTCCATCTCC) | 0.00252
AGTCCCACATGGACCGGTTTTCCCGGTAATCCGTATTTGGA (site AGTCCCACTTC) | 0.296
AGTCCTTCATGGACCGGTTTTCCCGGTAATCCGTATTTGGG (site AGTCCTTCTCC) | 0.0141
AGTCTAGCATGGACCGGTTTTCCCGGTAATCCGTATTTGTT (site AGACTAGCTAA) | 0.0182
AGTCTAGCATGGACCGGTTTTCCCGGTAATCCGTATTTGTT (site AGCCTAGCTAA) | 0.0159
AGTCTAGCATGGACCGGTTTTCCCGGTAATCCGTATTTGTT (site AGGCTAGCTAA) | 0.0213
AGTCTAGCATGGACCGGTTTTCCCGGTAATCCGTATTTGTT (site AGTCTAGCTAA) | 0.0147
AGTCTGACATGGACCGGTTTTCCCGGTAATCCGTATTTGGA (site AGTCTGACTTC) | 0.729
AGTCTTTCATGGACCGGTTTTCCCGGTAATCCGTATTTGAC (site AGACTTTCTGT) | 0
AGTCTTTCATGGACCGGTTTTCCCGGTAATCCGTATTTGAC (site AGCCTTTCTGT) | 0.743
AGTCTTTCATGGACCGGTTTTCCCGGTAATCCGTATTTGAC (site AGGCTTTCTGT) | 0
AGTCTTTCATGGACCGGTTTTCCCGGTAATCCGTATTTGAC (site AGTCTTTCTGT) | 0
AGTGACTCATGGACCGGTTTTCCCGGTAATCCGTATTTGCG (site AGTGACTCTCG) | 2.88
AGTGAGACATGGACCGGTTTTCCCGGTAATCCGTATTTGGG (site AGTGAGACTCC) | 0.00984
AGTGATCCATGGACCGGTTTTCCCGGTAATCCGTATTTGGT (site AGTGATCCTAC) | 0.0964
AGTGCGACATGGACCGGTTTTCCCGGTAATCCGTATTTGCA (site AGTGCGACTTG) | 1.38
AGTGGAACATGGACCGGTTTTCCCGGTAATCCGTATTTGTC (site AGTGGAACTGA) | 2.3
AGTGGCCCATGGACCGGTTTTCCCGGTAATCCGTATTTGCG (site AGTGGCCCTCG) | 0.0207
AGTGGCGCATGGACCGGTTTTCCCGGTAATCCGTATTTGTC (site AGTGGCGCTGA) | 2.86
AGTTACGCATGGACCGGTTTTCCCGGTAATCCGTATTTGAT (site AGTTACGCTAT) | 1.72
AGTTCCCCATGGACCGGTTTTCCCGGTAATCCGTATTTGTA (site AGTTCCCCTTA) | 0.124
AGTTCCCCATGGACCGGTTTTCCCGGTAATCCGTATTTGTA (site CGTTCCCCTTA) | 0.025

Sequence | recombinant UMI read abundance (log10)
AGTTCCCCATGGACCGGTTTTCCCGGTAATCCGTATTTGTA (site GGTTCCCCTTA) | 0.013
AGTTCCCCATGGACCGGTTTTCCCGGTAATCCGTATTTGTA (site TGTTCCCCTTA) | 0.0167
ATAAGAACATGGACCGGTTTTCCCGGTAATCCGTATTTGGG (site ATAAGAACTCC) | 0.884
ATAAGATCATGGACCGGTTTTCCCGGTAATCCGTATTTGAA (site ATAAGATCTTT) | 2.8
ATAAGGACATGGACCGGTTTTCCCGGTAATCCGTATTTGAC (site ATAAGGACTGT) | 2.34
ATAAGGACATGGACCGGTTTTCCCGGTAATCCGTATTTGAC (site ATAAGGCCTGT) | 0
ATAAGGACATGGACCGGTTTTCCCGGTAATCCGTATTTGAC (site ATAAGGGCTGT) | 2.31
ATAAGGACATGGACCGGTTTTCCCGGTAATCCGTATTTGAC (site ATAAGGTCTGT) | 1.93
ATAAGGCCATGGACCGGTTTTCCCGGTAATCCGTATTTGGC (site ATAAGGCCTGA) | 0
ATAAGGCCATGGACCGGTTTTCCCGGTAATCCGTATTTGGC (site ATAAGGCCTGC) | 2.31
ATAAGGCCATGGACCGGTTTTCCCGGTAATCCGTATTTGGC (site ATAAGGCCTGG) | 0
ATAAGGCCATGGACCGGTTTTCCCGGTAATCCGTATTTGGC (site ATAAGGCCTGT) | 0.68
ATACAAGCATGGACCGGTTTTCCCGGTAATCCGTATTTGAC (site ATACAAGCTGT) | 2.38
ATACCACCATGGACCGGTTTTCCCGGTAATCCGTATTTGGT (site ATACCACCTAC) | 0.0125
ATACCGTCATGGACCGGTTTTCCCGGTAATCCGTATTTGGG (site ATACCGTCTCC) | 0.0133
ATACTATCATGGACCGGTTTTCCCGGTAATCCGTATTTGTT (site ATACTATCTAA) | 2.54
ATAGCATCATGGACCGGTTTTCCCGGTAATCCGTATTTGCA (site ACAGTATCTTG) | 1.65
ATAGCATCATGGACCGGTTTTCCCGGTAATCCGTATTTGCA (site ATAGCATCTTG) | 2.9
ATAGGTGCATGGACCGGTTTTCCCGGTAATCCGTATTTGGC (site ATAGGTGCTGC) | 3.17
ATAGTATCATGGACCGGTTTTCCCGGTAATCCGTATTTGTA (site ACAGTATCTTG) | 0.029
ATAGTATCATGGACCGGTTTTCCCGGTAATCCGTATTTGTA (site ATAGTATCTTA) | 3.14
ATAGTCGCATGGACCGGTTTTCCCGGTAATCCGTATTTGCG (site ATAGTCGCTCG) | 1.37
ATAGTCGCATGGACCGGTTTTCCCGGTAATCCGTATTTGCG (site CTAGTCGCTCG) | 0.303
ATAGTCGCATGGACCGGTTTTCCCGGTAATCCGTATTTGCG (site GTAGTCGCTCG) | 0.0129
ATAGTCGCATGGACCGGTTTTCCCGGTAATCCGTATTTGCG (site TTAGTCGCTCG) | 0.00819
ATAGTCTCATGGACCGGTTTTCCCGGTAATCCGTATTTGAG (site ATAGTCTCTCT) | 2
